Measurements: patent publication US7439242B2, “PPARγ modulators” (Amgen Inc., priority 1998, dated 2008)

Molecular target: T1, PPARγ (Homo sapiens, UniProt P37231)
T1 construct: made in house
T1 sequence (P37231 1-505): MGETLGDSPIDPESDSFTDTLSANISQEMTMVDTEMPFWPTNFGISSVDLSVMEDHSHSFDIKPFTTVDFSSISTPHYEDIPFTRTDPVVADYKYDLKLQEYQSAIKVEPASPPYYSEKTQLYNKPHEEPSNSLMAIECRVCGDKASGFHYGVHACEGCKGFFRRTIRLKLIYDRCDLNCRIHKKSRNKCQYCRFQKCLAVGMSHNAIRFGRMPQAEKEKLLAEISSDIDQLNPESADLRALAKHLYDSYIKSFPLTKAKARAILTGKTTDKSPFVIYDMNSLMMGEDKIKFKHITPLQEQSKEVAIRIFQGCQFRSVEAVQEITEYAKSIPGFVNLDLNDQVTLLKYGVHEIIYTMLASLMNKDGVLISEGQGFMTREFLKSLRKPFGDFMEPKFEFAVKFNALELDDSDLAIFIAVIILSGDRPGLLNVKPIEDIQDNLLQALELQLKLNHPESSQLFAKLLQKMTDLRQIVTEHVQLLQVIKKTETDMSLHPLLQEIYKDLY
Experiment: PPARγ ligand binding assay utilizing [3H]-BRL 49653 as the radioligand
Conditions: concentration of test compound required to reduce by 50% the specific binding of [3H]-BRL 49653; methods similar to Lehmann et al.
Text: The compounds of the present invention can be evaluated for modulation of the PPARγ receptor using assays such as those described in Jiang, et al., Nature 391:82-86 (1998), Ricote, et al., Nature 391:79-82 (1998) and Lehmann, et al., J. Biol. Chem. 270(12): 12953-12956 (1995). Alternatively, the compounds can be evaluated for their ability to displace radiolabeled BRL 49653 from a PPARγ-GST fusion protein as follows:
PPARγ-GST fusion protein (prepared according to standard procedures), [^3H]—BRL 49653 having 50 Ci/mmol specific activity, Polyfiltronics Unifilter 350 filtration plate and glutathione-Sepharose® beads (from Pharmacia: washed twice with 10×binding buffer in which BSA and DTT can be left out).
Binding buffer (10 mM Tris-HCl, pH 8.0, 50 mM KCl, 10 mM DTT, 0.02% BSA and 0.01% NP-40) is added in 80 microliter amounts to the wells of the filtration plate. The test compound is then added in 10 microliters of DMSO. The PPARγ-GST fusion protein and radiolabeled BRL compound are premixed in binding buffer containing 10 mM DTT and added in 10 microliter amounts to the wells of the plate to provide final concentrations of 1 μg/well of PPARγ-GST fusion protein and 10 nM [^3H]—BRL 49653 compound. The plate is incubated for 15 minutes. Glutathione-agarose bead is added in 50 μL of binding buffer, and the plate is vigorously shaken for one hour. The plate is washed four times with 200 μL/well of binding buffer (without BSA and DTT). The bottom of the plate is sealed and 200 μL/well of scintillation cocktail is added. The top of the plate is then sealed and the radioactivity is determined.
IC50 values are defined as the concentration of test compounds required to reduce by 50% the specific binding of [^3H]-BRL 49653.

IC50	SMILES
150 nM	CCOC(=O)c1cc(NS(=O)(=O)c2cc(Br)ccc2OC)ccc1Oc1cncc(Cl)c1 [Example 3, ethyl 5-(2-methoxy-5-bromobenzenesulfonamido)-2-(3-chloro-5-pyridyloxy)benzoate]
300 nM	CCOC(=O)c1cc(NS(=O)(=O)c2ccc(OC)c(OC)c2)ccc1Oc1cncc(Cl)c1 [Example 4, ethyl 5-(3,4-dimethoxy-benzenesulfonamido)-2-(3-chloro-5-pyridyloxy)benzoate]
800 nM	CCOC(=O)c1cc(NS(=O)(=O)c2cc([N+](=O)[O-])ccc2C)ccc1Oc1cncc(Cl)c1 [Example 5, ethyl 5-(2-methyl-5-nitrobenzenesulfonamido)-2-(3-chloro-5-pyridyloxy)benzoate]
6000 nM	CCOC(=O)c1cc(NS(=O)(=O)c2c(Cl)cccc2Cl)ccc1Oc1cncc(Cl)c1 [Example 6, ethyl 5-(2,6-dichlorobenzenesulfonamido)-2-(3-chloro-5-pyridyloxy)benzoate]
800 nM	CCOC(=O)c1cc(NS(=O)(=O)c2c(C)cc(Cl)cc2Cl)ccc1Oc1cncc(Cl)c1 [Example 7, ethyl 5-(2,4-dichloro6-methylbenzenesulfonamido)-2-(3-chloro5-pyridyloxy)benzoate]

System: not given
Experiment: not given
Conditions: not given

melting point	SMILES
168 to 170 °C	O=S(=O)(Nc1ccccc1Oc1cncc(Cl)c1)c1ccc(Cl)cc1Cl [Example 32, 1-(3-chloro-5-pyridyloxy)-2-(2,4-dichlorobenzenesulfonamido)benzene]
153 to 155 °C	CCOC(=O)c1cc(S(=O)(=O)Nc2ccc(Cl)cc2Cl)ccc1Oc1cncc(Cl)c1 [Example 40, ethyl 2-(3-chloro-5-pyridyloxy)-5-(2,4-dichlorophenylaminosulfonyl)benzoic acid]
125 to 127 °C	CCOC(=O)c1cc(NC(=O)c2ccc(Cl)cc2Cl)ccc1Oc1cncc(Cl)c1 [Example 41, ethyl 5-(2,4-dichlorobenzamido)-2-(3-chloro-5-pyridyloxy)benzoate]
150 to 151.5 °C	O=S(=O)(Nc1cc(C(F)(F)F)ccc1Oc1cncc(Cl)c1)c1ccc(Cl)cc1Cl [Example 43, 4-(3-chloro-5-pyridyloxy)-3-(2,4-dichlorobenzenesulfonamido)benzotrifluoride]

The next lines start with the molecule.

SMILES	melting point
CCOC(=O)c1cc(NS(=O)(=O)c2ccc(C(F)(F)F)cn2)ccc1Oc1cncc(Cl)c1 [Example 21, ethyl 5-(5-trifluoromethyl-2-pyridinesulfonamido)-2-(3-chloro-5-pyridyloxy)benzoate]	133 to 135 °C
CCOC(=O)c1cc(NS(=O)(=O)c2ccc(Cl)nc2)ccc1Oc1cncc(Cl)c1 [Example 24, ethyl 5-(6-chloro-3-pyridinesulfonamido)-2-(3-chloro-5-pyridyloxy)benzoate]	166 to 168 °C
CCOC(=O)c1cc(NS(=O)(=O)c2cccnc2)ccc1Oc1cncc(Cl)c1 [Example 25, ethyl 5-(3-pyridinesulfonamido)-2-(3-chloro-5-pyridyloxy)benzoate]	120 to 122 °C
